For seven molecules, pest or weed control results are on record in patent publication US12077503B2, “Substituted cyclic amides and their use as herbicides” (FMC CORPORATION, priority 2015, dated 2024).

Holding throughout (assay): Test A preemergence
What all share (type): in vivo

In assay [1] the test system is ryegrass, Italian (Italian ryegrass, Lolium multiflorum). Conditions: Lolium multiflorum, pre-emergence, 240 h; for pest or weed control at 125 g/ha: 125 g ai/ha; for pest or weed control at 500 g/ha: 500 g ai/ha. In a few lines:
(§1)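 Preemergence soil spray on seeded pots or post-emergence spray on 1–2 leaf plants, in loam–sand blend. Greenhouse ~10 d. Visual rating 0–100 against untreated plants.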

The test system of the next assay is Kochia (Kochia scoparia). Conditions: Bassia scoparia, pre-emergence, 240 h; for pest or weed control at 125 g/ha: 125 g ai/ha; for pest or weed control at 500 g/ha: 500 g ai/ha. In a few lines: as §1
The test system of assay [2] is ragweed (common ragweed, Ambrosia elatior). Conditions: Ambrosia artemisiifolia, pre-emergence, 240 h; for pest or weed control at 125 g/ha: 125 g ai/ha; for pest or weed control at 500 g/ha: 500 g ai/ha. In a few lines: as §1
In assay [3] the test system is barnyardgrass (Echinochloa crus-galli). Conditions: Echinochloa crus-galli, pre-emergence, 240 h; for pest or weed control at 125 g/ha: 125 g ai/ha; for pest or weed control at 500 g/ha: 500 g ai/ha. In a few lines:
as §1

Assay [4] has as its system giant foxtail (Setaria faberii). The following applies: Setaria faberi, pre-emergence, 240 h; for pest or weed control at 125 g/ha: 125 g ai/ha; for pest or weed control at 500 g/ha: 500 g ai/ha. In a few lines: as §1
[5] abbreviates: preemergence, visual injury rating, 0 to 100 scale where 0 is no effect and 100 is complete control, approximately 10 d, read-out: Ryegrass, Italian plant response rating.
The mark [6] stands for this setting: preemergence, 0 to 100 scale where 0 is no effect and 100 is complete control, read-out: Ryegrass, Italian plant response rating.
Where [7] appears, read: preemergence, visual injury rating, 0 to 100 scale where 0 is no effect and 100 is complete control, approximately 10 d, read-out: Kochia plant response rating.
[8] abbreviates: preemergence, 0 to 100 scale where 0 is no effect and 100 is complete control, read-out: Kochia plant response rating.
Where [9] appears, read: preemergence, visual injury rating, 0 to 100 scale where 0 is no effect and 100 is complete control, approximately 10 d, read-out: Ragweed plant response rating.
Where [10] appears, read: preemergence, 0 to 100 scale where 0 is no effect and 100 is complete control, read-out: Ragweed plant response rating.
Where [11] appears, read: preemergence, visual injury rating, 0 to 100 scale where 0 is no effect and 100 is complete control, approximately 10 d, read-out: Barnyardgrass plant response rating.
[12] abbreviates: preemergence, 0 to 100 scale where 0 is no effect and 100 is complete control, read-out: Barnyardgrass plant response rating.
The mark [13] stands for this setting: preemergence, visual injury rating, 0 to 100 scale where 0 is no effect and 100 is complete control, approximately 10 d, read-out: Foxtail, Giant plant response rating.
Setting [14] is: preemergence, 0 to 100 scale where 0 is no effect and 100 is complete control, read-out: Foxtail, Giant plant response rating.
[15] abbreviates: Preemergence, visual injury vs untreated controls after approximately 10 d, read-out: Ryegrass, Italian plant response rating (0 to 100 scale where 0 is no effect and 100 is complete control).
The mark [16] stands for this setting: Preemergence, visual injury vs untreated controls after approximately 10 d, read-out: Kochia plant response rating (0 to 100 scale where 0 is no effect and 100 is complete control).
Setting [17] is: Preemergence, visual injury vs untreated controls after approximately 10 d, read-out: Ragweed plant response rating (0 to 100 scale where 0 is no effect and 100 is complete control).
Setting [18] is: Preemergence, visual injury vs untreated controls after approximately 10 d, read-out: Barnyardgrass plant response rating (0 to 100 scale where 0 is no effect and 100 is complete control).
The mark [19] stands for this setting: Preemergence, visual injury vs untreated controls after approximately 10 d, read-out: Foxtail, Giant plant response rating (0 to 100 scale where 0 is no effect and 100 is complete control).

Where two headings read alike, the source gives them in different places.

Regarding `COc1cc(C(F)(F)F)ccc1[C@H]1CNC(=O)[C@@H]1C(=O)Nc1ccccc1F` [Compound 1202], the pest or weed control at 125 g/ha in assay [1] (setting [5]) turned out to be 0%; in the assay with Kochia (Kochia scoparia) (setting [7]) it was 20%; in assay [2] (setting [9]), 0%; in assay [3] (setting [11]), 90%; in assay [4] (setting [13]), 50%. Moreover, the pest or weed control at 500 g/ha is 60% in assay [1] (setting [6]); 60% in the assay with Kochia (Kochia scoparia) (setting [8]); 90% in assay [2] (setting [10]); 90% in assay [3] (setting [12]); 90% in assay [4] (setting [14]).

`CN1C[C@H](c2cc(F)cc(F)c2)[C@@H](C(=O)Nc2ncc(C(F)(F)F)cc2F)C1=O` [Compound 868]: the pest or weed control at 125 g/ha in assay [1] (setting [6]) amounted to 0%; in the assay with Kochia (Kochia scoparia) (setting [8]), 0%; in assay [2] (setting [10]) it was 0%; in assay [3] (setting [12]) it was 30%; in assay [4] (setting [14]), 20%. Also, the pest or weed control at 500 g/ha in assay [1] (setting [15]) turned out to be 0%; in the assay with Kochia (Kochia scoparia) (setting [16]), 0%; in assay [2] (setting [17]), 0%; in assay [3] (setting [18]) it was 60%; in assay [4] (setting [19]) it was 60%.

Regarding `CC(C)COc1cccc([C@H]2CN(C)C(=O)[C@@H]2C(=O)Nc2ccccc2F)c1` [Compound 1028], the pest or weed control at 125 g/ha was found to be 30% in assay [1] (Preemergence, visual injury rating after approximately 10 d, read-out: Ryegrass, Italian plant response rating (0 to 100 scale, 0 is no effect, 100 is complete control)); 0% in the assay on Kochia (Kochia scoparia) (Preemergence, visual injury rating after approximately 10 d, read-out: Kochia plant response rating (0 to 100 scale, 0 is no effect, 100 is complete control)); 0% in assay [2] (Preemergence, visual injury rating after approximately 10 d, read-out: Ragweed plant response rating (0 to 100 scale, 0 is no effect, 100 is complete control)); 90% in assay [3] (Preemergence, visual injury rating after approximately 10 d, read-out: Barnyardgrass plant response rating (0 to 100 scale, 0 is no effect, 100 is complete control)); 90% in assay [4] (Preemergence, visual injury rating after approximately 10 d, read-out: Foxtail, Giant plant response rating (0 to 100 scale, 0 is no effect, 100 is complete control)). In addition, the pest or weed control at 500 g/ha in assay [1] (preemergence, visual injury rating about 10 d after treatment, 0 to 100 scale (0 no effect, 100 complete control), read-out: Ryegrass, Italian plant response rating) stood at 30%; in the assay on Kochia (Kochia scoparia) (preemergence, visual injury rating about 10 d after treatment, 0 to 100 scale (0 no effect, 100 complete control), read-out: Kochia plant response rating), 60%; in assay [3] (preemergence, visual injury rating about 10 d after treatment, 0 to 100 scale (0 no effect, 100 complete control), read-out: Barnyardgrass plant response rating), 90%; in assay [4] (preemergence, visual injury rating about 10 d after treatment, 0 to 100 scale (0 no effect, 100 complete control), read-out: Foxtail, Giant plant response rating), 90%.

`CC(C)(C)c1ccc([C@H]2CNC(=O)[C@@H]2C(=O)Nc2cccc(F)c2F)cc1` [Compound 847]: the pest or weed control at 125 g/ha (in assay [1] (setting [6]); in the assay on Kochia (Kochia scoparia) (setting [8]); in assay [2] (setting [10]); in assay [3] (setting [12]); in assay [4] (setting [14])) was 0% in each case. Also, the pest or weed control at 500 g/ha was determined as 0% in assay [1] (setting [15]); 0% in the assay with Kochia (Kochia scoparia) (setting [16]); 0% in assay [2] (setting [17]); 60% in assay [3] (setting [18]); 50% in assay [4] (setting [19]).

Regarding `Cc1c(F)ccc([C@H]2CN(C)C(=O)[C@@H]2C(=O)Nc2ccc(F)c(F)c2F)c1F` [Compound 836], the pest or weed control at 125 g/ha in assay [1] (setting [6]) was 90%; in the assay on Kochia (Kochia scoparia) (setting [8]), 90%; in assay [2] (setting [10]), 0%; in assay [3] (setting [12]), 90%; in assay [4] (setting [14]) it was 90%. For the same molecule, the pest or weed control at 500 g/ha worked out at 80% in assay [1] (setting [15]); 90% with Kochia (Kochia scoparia) (setting [16]); 0% in assay [2] (setting [17]); 90% in assay [3] (setting [18]); 90% in assay [4] (setting [19]).

As for `Cc1cc([C@H]2CN(C)C(=O)[C@@H]2C(=O)Nc2ccccc2F)on1` [Compound 1195], the pest or weed control at 125 g/ha (in assay [1] (setting [5]); in the assay on Kochia (Kochia scoparia) (setting [7]); in assay [2] (setting [9]); in assay [3] (setting [11]); in assay [4] (setting [13])) was 0% throughout. Further, the pest or weed control at 500 g/ha in assay [1] (setting [6]) was found to be 0%; in the assay on Kochia (Kochia scoparia) (setting [8]), 0%; in assay [2] (setting [10]), 0%; in assay [3] (setting [12]), 80%; in assay [4] (setting [14]), 40%.

Regarding `CCc1cc(CC)cc([C@H]2CNC(=O)[C@@H]2C(=O)Nc2cccc(F)c2F)c1` [Compound 1139], the pest or weed control at 125 g/ha came to 30% in assay [1] (preemergence, 0 to 100 scale where 0 is no effect and 100 is complete control, approx. 10 d, read-out: Ryegrass, Italian plant response rating); 30% with Kochia (Kochia scoparia) (preemergence, 0 to 100 scale where 0 is no effect and 100 is complete control, approx. 10 d, read-out: Kochia plant response rating); 50% in assay [2] (preemergence, 0 to 100 scale where 0 is no effect and 100 is complete control, approx. 10 d, read-out: Ragweed plant response rating); 90% in assay [3] (preemergence, 0 to 100 scale where 0 is no effect and 100 is complete control, approx. 10 d, read-out: Barnyardgrass plant response rating); 90% in assay [4] (preemergence, 0 to 100 scale where 0 is no effect and 100 is complete control, approx. 10 d, read-out: Foxtail, Giant plant response rating). Further, the pest or weed control at 500 g/ha was found to be 70% in assay [1] (setting [6]); 60% in the assay with Kochia (Kochia scoparia) (setting [8]); 50% in assay [2] (setting [10]); 90% in assay [3] (setting [12]); 90% in assay [4] (setting [14]).
